The target of one assay is PYK2 (Homo sapiens (Human), UniProt Q14289). In words: Biochemical assay for PYK2 activity (LANCE TR-FRET, ULight-poly Glu,Ala,Tyr substrate). Conditions: GST-tagged PYK2, 40 min reaction. The method in brief: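 GST-tagged human PYK2 (2 nM working stock) with ULight-poly Glu,Ala,Tyr (1:1:1) peptide (666 nM working stock) and ATP (46.6 μM working stock) in 40 mM Tris pH 7.5, MgCl2, 1 mM DTT, 1 mM CHAPS; 40 min reaction, EDTA quench. Phosphotyrosine read by LANCE Eu-anti-phosphotyrosine (PY20) TR-FRET after 60 min; 12-point 3-fold compound dilutions.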
Sequence of PYK2 (Q14289 whole entry): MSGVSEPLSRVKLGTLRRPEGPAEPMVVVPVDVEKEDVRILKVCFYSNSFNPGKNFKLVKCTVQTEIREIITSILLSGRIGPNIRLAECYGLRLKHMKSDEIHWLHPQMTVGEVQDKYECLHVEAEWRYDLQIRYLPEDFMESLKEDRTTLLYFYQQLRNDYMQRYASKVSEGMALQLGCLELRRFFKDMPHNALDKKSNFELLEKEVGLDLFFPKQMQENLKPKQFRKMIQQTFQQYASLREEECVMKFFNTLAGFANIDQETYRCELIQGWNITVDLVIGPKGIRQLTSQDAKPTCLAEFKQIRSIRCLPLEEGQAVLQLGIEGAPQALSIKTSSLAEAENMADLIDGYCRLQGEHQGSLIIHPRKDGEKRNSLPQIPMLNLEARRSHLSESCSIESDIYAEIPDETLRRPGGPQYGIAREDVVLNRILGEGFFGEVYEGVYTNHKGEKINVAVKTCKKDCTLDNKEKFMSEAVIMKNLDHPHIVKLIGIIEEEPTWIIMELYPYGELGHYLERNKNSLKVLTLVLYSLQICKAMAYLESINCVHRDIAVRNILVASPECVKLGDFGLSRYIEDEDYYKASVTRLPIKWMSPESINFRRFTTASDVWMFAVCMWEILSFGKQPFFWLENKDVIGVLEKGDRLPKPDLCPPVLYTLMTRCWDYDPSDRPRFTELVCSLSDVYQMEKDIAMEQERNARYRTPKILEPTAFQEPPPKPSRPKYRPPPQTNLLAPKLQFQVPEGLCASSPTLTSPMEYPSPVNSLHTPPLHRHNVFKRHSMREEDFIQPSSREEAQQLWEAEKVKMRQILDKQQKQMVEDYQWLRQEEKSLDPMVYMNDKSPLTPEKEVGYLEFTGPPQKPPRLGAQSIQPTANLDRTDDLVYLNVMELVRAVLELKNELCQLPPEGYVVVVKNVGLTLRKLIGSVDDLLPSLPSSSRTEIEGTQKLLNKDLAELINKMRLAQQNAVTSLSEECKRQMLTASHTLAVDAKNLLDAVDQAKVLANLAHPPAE
(In general: Time-resolved FRET reads energy transfer from a long-lived donor to a nearby acceptor.)

Another assay has as its target FAK (Homo sapiens (Human), UniProt Q05397). In words: Biochemical assay for FAK activity (LANCE TR-FRET, ULight-poly Glu,Ala,Tyr substrate). The settings on record: GST-tagged FAK, 120 min reaction. The gist of the method:
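GST-tagged FAK (2.5 nM working stock) with ULight-poly Glu,Ala,Tyr (666 nM stock) and ATP (33.3 μM stock) in Tris pH 7.5/MgCl2/DTT/CHAPS buffer with BSA, 120 min; EDTA-quenched. Phosphorylation read by TR-FRET with Eu-anti-phosphotyrosine (PY20) antibody after 60 min. Compounds tested as 12-point 3-fold dilutions.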

Sequence of FAK (Q05397 whole entry): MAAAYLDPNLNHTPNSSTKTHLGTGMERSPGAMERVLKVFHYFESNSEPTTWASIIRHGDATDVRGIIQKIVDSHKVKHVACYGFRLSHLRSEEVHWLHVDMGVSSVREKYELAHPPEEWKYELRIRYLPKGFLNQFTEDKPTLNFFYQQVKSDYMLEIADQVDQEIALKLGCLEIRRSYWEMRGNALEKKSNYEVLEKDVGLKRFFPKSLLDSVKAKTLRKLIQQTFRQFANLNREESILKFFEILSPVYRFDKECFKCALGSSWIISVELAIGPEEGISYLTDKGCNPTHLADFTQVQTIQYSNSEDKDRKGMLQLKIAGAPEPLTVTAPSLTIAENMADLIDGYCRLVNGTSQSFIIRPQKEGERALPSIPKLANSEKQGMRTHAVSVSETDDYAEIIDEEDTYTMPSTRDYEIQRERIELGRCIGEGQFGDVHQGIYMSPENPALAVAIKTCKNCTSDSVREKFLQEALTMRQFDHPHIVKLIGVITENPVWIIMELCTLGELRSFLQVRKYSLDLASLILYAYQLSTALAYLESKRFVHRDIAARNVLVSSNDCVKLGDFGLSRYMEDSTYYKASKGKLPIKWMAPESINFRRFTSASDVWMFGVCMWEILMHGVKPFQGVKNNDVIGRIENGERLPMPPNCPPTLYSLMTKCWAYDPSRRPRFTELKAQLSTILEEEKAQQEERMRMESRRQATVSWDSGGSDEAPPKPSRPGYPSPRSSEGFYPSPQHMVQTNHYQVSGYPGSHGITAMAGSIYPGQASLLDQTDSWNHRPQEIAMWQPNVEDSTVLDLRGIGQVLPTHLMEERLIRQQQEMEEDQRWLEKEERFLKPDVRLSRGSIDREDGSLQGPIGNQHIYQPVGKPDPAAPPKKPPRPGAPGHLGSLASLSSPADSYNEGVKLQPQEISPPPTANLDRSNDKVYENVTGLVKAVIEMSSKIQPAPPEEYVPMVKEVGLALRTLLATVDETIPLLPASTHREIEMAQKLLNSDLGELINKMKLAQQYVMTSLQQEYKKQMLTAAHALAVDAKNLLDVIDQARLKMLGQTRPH

For `CC(C)NS(=O)(=O)c1ccccc1Nc1nc(Nc2ccc(OC(F)(F)F)cc2)nc2c1CCN2` [Example 71, N-isopropyl-2-(2-(4-(trifluoromethoxy)phenylamino)-6,7-dihydro-5H-pyrrolo[2,3-d]pyrimidin-4-ylamino)benzenesulfonamide], the 50% inhibitory concentration (IC50) was under 0.1 µM at PYK2 and under 0.2 µM at FAK.

On to `CC(C)NC(C)c1ccc(Nc2nc3c(c(Nc4ccccc4S(=O)(=O)NC(C)C)n2)CCN3)cc1` (stereo not drawn) [Example 72, N-isopropyl-2-(2-(4-(1-(isopropylamino)ethyl)phenylamino)-6,7-dihydro-5H-pyrrolo[2,3-d]pyrimidin-4-ylamino)benzenesulfonamide], for which the IC50 at PYK2 and against FAK was under 0.02 µM throughout.

In the case of `CC(C)NS(=O)(=O)c1ccccc1Nc1nc(Nc2cccc(NS(C)(=O)=O)c2)nc2c1CCN2` [Example 73, N-isopropyl-2-(2-(3-(methylsulfonamido)phenylamino)-6,7-dihydro-5H-pyrrolo[2,3-d]pyrimidin-4-ylamino)benzenesulfonamide], the IC50 on PYK2 and against FAK was under 0.02 µM each time.

`CNC(=O)c1cccc(Nc2nc3c(c(Nc4ccccc4S(=O)(=O)NC(C)C)n2)CCN3)c1` [Example 74, 3-(4-(2-(N-isopropylsulfamoyl)phenylamino)-6,7-dihydro-5H-pyrrolo[2,3-d]pyrimidin-2-ylamino)-N-methylbenzamide]: the results for the IC50 on PYK2 and against FAK were under 0.05 µM and under 0.02 µM, respectively.

For `CC(=O)Nc1cccc(Nc2nc3c(c(Nc4ccccc4S(=O)(=O)NC(C)C)n2)CCN3)c1` [Example 75, N-(3-(4-(2-(N-isopropylsulfamoyl)phenylamino)-6,7-dihydro-5H-pyrrolo[2,3-d]pyrimidin-2-ylamino)phenyl)acetamide], the IC50 on PYK2 and against FAK was under 0.02 µM in each case.

Regarding `COc1cc(N2CCC(N(C)C)CC2)ccc1Nc1nc2c(c(Nc3ccccc3S(=O)(=O)NC(C)C)n1)CCN2` [Example 76, 2-(2-(4-(4-(dimethylamino)piperidin-1-yl)-2-methoxyphenylamino)-6,7-dihydro-5H-pyrrolo[2,3-d]pyrimidin-4-ylamino)-N-isopropylbenzenesulfonamide], the IC50 on PYK2 and against FAK was under 0.02 µM each time.

Regarding `COc1cc(-n2ccnc2)ccc1Nc1nc2c(c(Nc3ccccc3S(=O)(=O)NC(C)C)n1)CCN2` [Example 77, 2-(2-(4-(1H-imidazol-1-yl)-2-methoxyphenylamino)-6,7-dihydro-5H-pyrrolo[2,3-d]pyrimidin-4-ylamino)-N-isopropylbenzenesulfonamide], the IC50 on PYK2 and against FAK was under 0.5 µM each time.

For the molecule `CC(C)NS(=O)(=O)c1ccccc1Nc1nc(Nc2ccc(C(=O)N3CCCC3)cc2)nc2c1CCN2` [Example 78, N-isopropyl-2-(2-(4-(pyrrolidine-1-carbonyl)phenylamino)-6,7-dihydro-5H-pyrrolo[2,3-d]pyrimidin-4-ylamino)benzenesulfonamide], the IC50 at PYK2 and against FAK was under 0.02 µM in each case.

Turning to `COc1cc(N2CCC(CO)CC2)ccc1Nc1nc2c(c(Nc3ccccc3S(=O)(=O)NC(C)C)n1)CCN2` [Example 79, 2-(2-(4-(4-(hydroxymethyl)piperidin-1-yl)-2-methoxyphenylamino)-6,7-dihydro-5H-pyrrolo[2,3-d]pyrimidin-4-ylamino)-N-isopropylbenzenesulfonamide], the IC50 at PYK2 and on FAK was under 0.02 µM each time.

On to `COc1cc(N2CCC(O)C2)ccc1Nc1nc2c(c(Nc3ccccc3S(=O)(=O)NC(C)C)n1)CCN2` (stereo not drawn) [Example 80, 2-(2-(4-(3-hydroxypyrrolidin-1-yl)-2-methoxyphenylamino)-6,7-dihydro-5H-pyrrolo[2,3-d]pyrimidin-4-ylamino)-N-isopropylbenzenesulfonamide], for which the results for the IC50 against PYK2 and on FAK were under 0.1 µM and under 0.02 µM, respectively.

As to `COc1cc(N2CCCC(O)C2)ccc1Nc1nc2c(c(Nc3ccccc3S(=O)(=O)NC(C)C)n1)CCN2` (stereo not drawn) [Example 81, 2-(2-(4-(3-hydroxypiperidin-1-yl)-2-methoxyphenylamino)-6,7-dihydro-5H-pyrrolo[2,3-d]pyrimidin-4-ylamino)-N-isopropylbenzenesulfonamide], the values for the IC50 against PYK2 and on FAK were under 0.05 µM and under 0.02 µM, respectively.

For the molecule `COc1cc(-n2ccccc2=O)ccc1Nc1nc2c(c(Nc3ccccc3S(=O)(=O)NC(C)C)n1)CCN2` [Example 83, N-isopropyl-2-(2-(2-methoxy-4-(2-oxopyridin-1(2H)-yl)phenylamino)-6,7-dihydro-5H-pyrrolo[2,3-d]pyrimidin-4-ylamino)benzenesulfonamide], the IC50 against PYK2 and on FAK was under 0.02 µM in each case.

For the molecule `COc1cc(N2C(C)COCC2C)ccc1Nc1nc2c(c(Nc3ccccc3S(=O)(=O)NC(C)C)n1)CCN2` (stereo not drawn) [Example 84, 2-(2-(4-(3,5-dimethylmorpholino)-2-methoxyphenylamino)-6,7-dihydro-5H-pyrrolo[2,3-d]pyrimidin-4-ylamino)-N-isopropylbenzenesulfonamide], the figures for the IC50 on PYK2 and against FAK were under 0.1 µM and under 0.05 µM, respectively.

In the case of `COc1cc(NCCN2CCOCC2)ccc1Nc1nc2c(c(Nc3ccccc3S(=O)(=O)NC(C)C)n1)CCN2` [Example 85, N-isopropyl-2-(2-(2-methoxy-4-(2-morpholinoethylamino)phenylamino)-6,7-dihydro-5H-pyrrolo[2,3-d]pyrimidin-4-ylamino)benzenesulfonamide], the IC50 on PYK2 and at FAK was under 0.02 µM in each case.

For `COc1cc(N2CCC(O)CC2)ccc1Nc1nc2c(c(Nc3ccccc3S(=O)(=O)NC(C)C)n1)CCN2` [Example 86, 2-(2-(4-(4-hydroxypiperidin-1-yl)-2-methoxyphenylamino)-6,7-dihydro-5H-pyrrolo[2,3-d]pyrimidin-4-ylamino)-N-isopropylbenzenesulfonamide], the IC50 on PYK2 and on FAK was under 0.02 µM in each case.

Take `COc1cc(N2CCS(=O)(=O)CC2)ccc1Nc1nc2c(c(Nc3ccccc3S(=O)(=O)NC(C)C)n1)CCN2` [Example 87, 2-(2-(4-(4-(S,S-dioxothio)piperidin-1-yl)-2-methoxyphenylamino)-6,7-dihydro-5H-pyrrolo[2,3-d]pyrimidin-4-ylamino)-N-isopropylbenzenesulfonamide]: the IC50 on PYK2 and against FAK was under 0.02 µM in each case.

As for `COc1cc(-n2ncnn2)ccc1Nc1nc2c(c(Nc3ccccc3S(=O)(=O)NC(C)C)n1)CCN2` [Example 88, N-isopropyl-2-(2-(2-methoxy-4-(2H-tetrazol-2-yl)phenylamino)-6,7-dihydro-5H-pyrrolo[2,3-d]pyrimidin-4-ylamino)benzenesulfonamide], the IC50 is under 0.2 µM at PYK2 and under 0.05 µM on FAK.

With `COc1cc(N2CCC(N(C)C)C2)ccc1Nc1nc2c(c(Nc3ccccc3S(=O)(=O)NC(C)C)n1)CCN2` (stereo not drawn) [Example 89, 2-(2-(4-(3-(dimethylamino)pyrrolidin-1-yl)-2-methoxyphenylamino)-6,7-dihydro-5H-pyrrolo[2,3-d]pyrimidin-4-ylamino)-N-isopropylbenzenesulfonamide], the IC50 against PYK2 and on FAK was under 0.02 µM each time.

As for `COc1cc(-n2cc(C)nc2C)ccc1Nc1nc2c(c(Nc3ccccc3S(=O)(=O)NC(C)C)n1)CCN2` [Example 90, 2-(2-(4-(2,4-dimethyl-1H-imidazol-1-yl)-2-methoxyphenylamino)-6,7-dihydro-5H-pyrrolo[2,3-d]pyrimidin-4-ylamino)-N-isopropylbenzenesulfonamide], the IC50 against PYK2 and at FAK was under 0.02 µM each time.

For the molecule `Cc1csc(Nc2nc3c(c(Nc4ccccc4S(=O)(=O)NC(C)C)n2)CCN3)n1` [Example 91, N-isopropyl-2-(2-(4-methylthiazol-2-ylamino)-6,7-dihydro-5H-pyrrolo[2,3-d]pyrimidin-4-ylamino)benzenesulfonamide], the IC50 at PYK2 is under 1 µM; on FAK, over 1 µM.

As for `COc1cc(N2CCC(N3CCCCC3)CC2)ccc1Nc1nc2c(c(Nc3ccccc3S(=O)(=O)NC(C)C)n1)CCN2` [Example 92, 2-(2-(4-(1,4′-bipiperidin-1′-yl)-2-methoxyphenylamino)-6,7-dihydro-5H-pyrrolo[2,3-d]pyrimidin-4-ylamino)-N-isopropylbenzenesulfonamide], the IC50 against PYK2 and against FAK was under 0.02 µM throughout.

Regarding `COc1cc(N2CCC(N3CCCC3)CC2)ccc1Nc1nc2c(c(Nc3ccccc3S(=O)(=O)NC(C)C)n1)CCN2` [Example 93, N-isopropyl-2-(2-(2-methoxy-4-(4-(pyrrolidin-1-yl)piperidin-1-yl)phenylamino)-6,7-dihydro-5H-pyrrolo[2,3-d]pyrimidin-4-ylamino)benzenesulfonamide], the IC50 on PYK2 and on FAK was under 0.02 µM in each case.

With `COc1cc(-n2cccn2)ccc1Nc1nc2c(c(Nc3ccccc3S(=O)(=O)NC(C)C)n1)CCN2` [Example 94, N-isopropyl-2-(2-(2-methoxy-4-(1H-pyrazol-1-yl)phenylamino)-6,7-dihydro-5H-pyrrolo[2,3-d]pyrimidin-4-ylamino)benzenesulfonamide], the values for the IC50 on PYK2 and against FAK were under 0.2 µM and under 0.05 µM, respectively.

On to `COc1cc(N2CCC(N3CCN(C)CC3)CC2)ccc1Nc1nc2c(c(Nc3ccccc3S(=O)(=O)NC(C)C)n1)CCN2` [Example 96, N-isopropyl-2-(2-(2-methoxy-4-(4-(4-methylpiperazin-1-yl)piperidin-1-yl)phenylamino)-6,7-dihydro-5H-pyrrolo[2,3-d]pyrimidin-4-ylamino)benzenesulfonamide], for which the IC50 at PYK2 and against FAK was under 0.02 µM throughout.

By IC50 is commonly meant the midpoint of a concentration-inhibition curve. Higher therefore signals lower potency.

Source of the values: US9428508B2, “2,4-diamino-6,7-dihydro-5H-pyrrolo[2,3]pyrimidine derivatives as FAK/Pyk2 inhibitors” (Centaurus BioPharma Co., Ltd., priority 2011, dated 2016).
